Test results reported in patent US11952364B2, “TRK inhibitors useful as anticancer drugs” (TYLIGAND BIOSCIENCE (SHANGHAI) LIMITED, priority 2018, dated 2024).
Read-outs that look alike come from different tables or passages of the source.

System: KM12 cells
Experiment: Proliferation of KM12 cells (CellTiter-Glo)
Type: cell-based, human
Excerpt: KM12 is a human colon cancer cell line in which NTRK1 is highly expressed, and gene fusion occurs with TPM3 to form TPM3-NTRK1. • [Test method]: Promega's CellTiter-Glo® Luminescent Cell Viability Assay kit was used to evaluate the inhibitory activity of the compounds on the proliferation of KM12 cells. • [Instrument]: Spectramax M3 multifunctional microplate reader from Molecular Devices. • [Test materials]: KM12 cell line (ATCC, item number CRL-12496), 96-well transparent flat-bottomed black-walled cell culture plate (Corning, item number #3603), RPMI-1640 media (GE, cat #SH30027.01), Fetal Bovine Serum FBS (Thermo Fisher, cat #10099-141), CellTiter-Glo® Luminescent Cell Viability Assay Kit (Promega, cat #G7572), PBS (Solarbio, cat #P1020), Trypsin (Thermo Fisher, cat #25200072), DMSO (Sigma, cat #D2650). • [Experimental procedure]: When resuscitating KM12 cells, the freezing tube was quickly shaken in a 37° C. water bath to melt within 1 minute. The thawed cell suspension was mixed uniformly with RPMI1640 medium containing 10% FBS, centrifuged at 1000 rpm for 5 minutes, and the supernatant discarded. 5 mL of complete medium (RPMI1640 medium with 10% FBS) was taken to resuspend the cell pellets, charged into a cell culture flask with a bottom area of 25 cm^2, and incubated in a cell incubator at 37° C., 95% humidity and 5% CO2. Cells were allowed to passage when the cell confluence rate reached about 80%. For cell passage, the old medium was discarded, and the cells were washed twice with PBS, and 0.5 mL trypsin was added to digest the cells. Upon dispersing into single cells and exfoliating from the bottom of the cell culture flask, 4.5 mL of new complete medium was added to terminate the digestion. After pipetting the cell suspension evenly, 1/5 of the cell suspension was kept and added with 4 mL of new complete medium, and after pipetting evenly, the cell flask was placed in the cell incubator for further culturing. Cell plating was performed when the cell confluence rate reached about 80% again. For cell plating, 1/5 of the cell suspension was kept for further culturing as in the cell passage method, and the remaining 4/5 of the cell suspension was placed in a 15 mL centrifuge tube, detected for cell viability by Trypan blue exclusion method to ensure that cell viability was above 90%. A cell suspension with a density of 3.33×10^4 viable cells/mL was prepared with complete medium, and 90 μL of such cell suspension was added to a 96-well cell culture plate to obtain a cell density of 3000 viable cells/mL in the cell culture plate. A control group containing no cells, no compound and only complete medium (i.e. culture medium control) and a control group containing no compound but containing cells (i.e. cell control) were set. The cell plate was placed in a cell incubator overnight.
The 10 mM compound stock solution in DMSO was first serially diluted with DMSO at a dilution factor of 3.16 times, to obtain 9 concentrations, and the 10th concentration was set as DMSO control without compound. Then, PBS was used to dilute the DMSO solutions of compounds of different concentrations, at a dilution factor of 100 times, so that the DMSO concentration in the compound solution of each concentration was 1%. Finally, 10 μL of each of the above solutions was added to the corresponding cell culture plate, so that the initial compound concentration was 10 μM, with the remaining concentrations being successively diluted at a dilution factor of 3.16 times, and the DMSO content in the cell culture plate was 0.1%.
The cell plate was placed in a cell incubator and cultured for 72 hours. For endpoint detection, the CellTiter-Glo reagent was melted, and the cell plate was moved to room temperature to equilibrate for 30 minutes, added with 100 μL of CellTiter-Glo for each well, and shaken on an orbital shaker for 5 minutes to fully lyse the cells. […]

[1] = Homo sapiens, KM12, 72 h, Table 1, 72 hours, read-out: KM-12, IC50
[2] = Homo sapiens, KM12, Table 1-2, separate test, read-out: KM-12, IC50
[3] = Homo sapiens, KM12, Table 9, read-out: KM12 cell proliferation inhibitory activity (IC50)
[4] = Homo sapiens, KM12, Table 1-1, separate test, read-out: KM-12, IC50

## O=C(Nc1cnn2ccc(N3CCC[C@@H]3c3cc(F)ccc3F)nc12)N1CC[C@H](O)C1 [LOXO-101, Larotrectinib, reference compound]
[1]
  IC50: 8.3 nM

## Cn1ncc2cc(Oc3ccc(NC(=O)c4ccc(OC5CC5)n(-c5ccc(F)cc5)c4=O)cc3F)c(-c3cn[nH]c3)cc21 [Example 15, N-(3-fluoro-4-(1-methyl-6-(1H-pyrazol-4-yl)-1H-indazol-5-yloxy)phenyl)-1-(4-fluorophenyl)-6-cyclopropoxy-2-oxo-1,2-dihydropyridine-3-carboxamide]
[2]
  IC50: 17 nM

## CSc1ccc(C(=O)Nc2ccc(Oc3cc4cnn(C)c4cc3-c3cn[nH]c3)c(F)c2)c(=O)n1-c1ccc(F)cc1 [Example 11, N-(3-fluoro-4-(1-methyl-6-(1H-pyrazol-4-yl)-1H-indazol-5-yloxy)phenyl)-1-(4-fluorophenyl)-6-methylthio-2-oxo-1,2-dihydropyidine-3-carboxamide]
[2]
  IC50: 35 nM

## CC(C)c1ccc(C(=O)Nc2ccc(Oc3cc4cnn(C)c4cc3-c3cn[nH]c3)c(F)c2)c(=O)n1-c1ccc(F)cc1 [Example 6, N-(3-fluoro-4-(1-methyl-6-(1H-pyrazol-4-yl)-1H-indazol-5-yloxy)phenyl)-1-(4-fluorophenyl)-6-isopropyl-2-oxo-1,2-dihydropyridine-3-carboxamide]
[1]
  IC50: 6.3 nM

## CCOc1ccc(C(=O)Nc2ccc(Oc3cc4cnn(CC)c4cc3-c3cn[nH]c3)c(F)c2)c(=O)n1-c1ccc(F)cc1 [Example 24, N-(3-fluoro-4-(1-ethyl-6-(1H-pyrazol-4-yl)-1H-indazol-5-yloxy)phenyl)-1-(4-fluorophenyl)-6-ethoxy-2-oxo-12-dihydropyridine-3-carboxamide]
Table 1-3, separate test, read-out: KM-12, IC50
  IC50: 23 nM

## COc1ccc(C(=O)Nc2ccc(Oc3cc4cnn5c4c(c3-c3cn[nH]c3)CC5)c(F)c2)c(=O)n1-c1ccc(F)cc1 [Example 28, N-(4-((5-(1H-pyrazol-4-yl)-6,7-dihydropyrrolo[3,2,1-hi]-indazol-4-yl)oxy)-3-fluorophenyl)-1-(4-fluorophenyl)-6-methoxy-2-oxo-1,2-dihydropyidine-3-carboxamide]
[3]
  IC50: 56 nM

## CCn1ncc2cc(Oc3ccc(NC(=O)c4ccc(OC)n(-c5ccc(F)cc5)c4=O)cc3F)c(-c3cn[nH]c3)cc21 [Example 23, N-(3-fluoro-4-(1-ethyl-6-(1H-pyrazol-4-yl)-1H-indazol-5-yloxy)phenyl)-1-(4-fluorophenyl)-6-methoxy-2-oxo-1,2-dihydropyridine-3-carboxamide]
[4]
  IC50: 32 nM

## CCn1ncc2cc(Oc3ccc(NC(=O)c4ccc(C5CC5)n(-c5ccc(F)cc5)c4=O)cc3F)c(-c3cn[nH]c3)cc21 [Example 19, N-(3-fluoro-4-(1-ethyl-6-(1H-pyrazol-4-yl)-1H-indazol-5-yloxy)phenyl)-1-(4-fluorophenyl)-6-cyclopropyl-2-oxo-1,2-dihydropyridine-3-carboxamide]
[4]
  IC50: 32 nM

## CC(C)Oc1ccc(C(=O)Nc2ccc(Oc3cc4cnn5c4c(c3-c3cn[nH]c3)CC5)c(F)c2)c(=O)n1-c1ccc(F)cc1 [Example 34, N-(4-((5-(1H-pyrazol-4-yl)-6,7-dihydropyrrolo[3,2,1-hi]-indazol-4-yl)oxy)-3-fluorophenyl)-1-(4-fluorophenyl)-6-isopropoxy-2-oxo-12-dihydropyrndine-3-carboxamide]
[3]
  IC50: 37 nM

## CCc1ccc(C(=O)Nc2ccc(Oc3cc4cnn(C)c4cc3-c3cn[nH]c3)c(F)c2)c(=O)n1-c1ccc(F)cc1 [Example 5, N-(3-fluoro-4-(1-methyl-6-(1H-pyrazol-4-yl)-1H-indazol-5-yloxy)phenyl)-1-(4-fluorophenyl)-6-ethyl-2-oxo-1,2-dihydropyridine-3-carboxamide]
[1]
  IC50: 5.1 nM

## Cn1ncc2cc(Oc3ccc(NC(=O)c4ccc(C5CC5)n(-c5ccc(F)cc5)c4=O)cc3F)c(-c3cn[nH]c3)cc21 [Example 2, N-(3-fluoro-4-(1-methyl-6-(1H-pyrazol-4-yl)-1H-indazol-5-yloxy)phenyl)-1-(4-fluorophenyl)-6-cyclopropyl-2-oxo-1,2-dihydmpyridine-3-carboxamide]
[1]
  IC50: 9.1 nM
